According to patent publication US5622960A, “Topoisomerase II inhibitors and therapeutic uses therefor” (The United States of America as represented by the …, priority 1992, dated 1997):

Columns and labels:
Topoisomerase II = test: topoisomerase II inhibition: drug-induced DNA cleavage in presence of HL-60 extract or purified top 2; format: biochemical; details: for top 2 inhibition / top 2 activity (in words): DNA cleavage assays; for Topoisomerase II inhibition: class symbols without legend, HL-60 extract or purified top 2; for effect of hydroxyl substitution on top 2 activity: 1 versus 6, DMDP versus DMEP
Description: Because the azatoxin skeleton is synthetically accessible, a large number of derivatives are readily prepared and screened for top 2 inhibitory activity in accordance with the present invention. Such screening can be effected by means of an in vitro assay which employs purified top 2 and ^32 P-end-labelled DNA. In such an assay, top 2 inhibition by a test substance results in DNA fragmentation which can be detected by agarose gel electrophoresis, as described by Fesen and Pommier, J. Biol. Chem. 19:11354-59 (1989); by the filter-binding assay described by Pommier et al., Biochem. 24:6410-16 (1985); or by the sodium dodecylsulfate precipitation assay employed by Nelson et al., Proc. Nat'l Acad. Sci. USA81: 1361-65 (1984).
(§1) Chemicals, and enzymes: Azatoxin and its derivatives, as well as the demethyldesoxypodophyllotoxin (DMDP) and demethylepipodophyllotoxin (DMEP), were synthesized by conventional methods. The compounds m-AMSA and mitoxantrone were obtained from the Drug Synthesis and Chemistry Branch, National Cancer Institute, Bethesda, Md. The compounds VP-16 and VM-26 were obtained from Bristol-Myers Company (Wallingford, Conn.). Drug stock solutions were made in dimethylsulfoxide at 10 mM. Further dilutions were made in distilled water. Various other reagents, including simian virus 40 (SV40) and c-myc human DNA inserts in plasmid pBR322, restriction endonucleases, DNA topoisomerase I, T4 polynucleotide kinase, calf intestine phosphatase, agarose and polyacrylamide/bis, were purchased from Bethesda Research Laboratories (Gaithersburg, Md.), from the American Type Culture Collection (Rockville, Md.) or from New England Biolabs (Beverly, Mass.). [Gamma-^32 P]ATP was purchased from New England Nuclear Research Products (Boston, Mass.).
(§2) DNA topoisomerase II was purified from mouse leukemia L1210 cell nuclei as described, for example, by Pommier et al. (1985), supra, and was stored at -70° C. in 40% (v/v) glycerol, 0.35 M NaCl, 5 mM MgCl2, 1 mM KH2 PO4, 0.2 mM dithiothreitol and 0.1 mM phenylmethanesulfonyl fluoride (pH 6.4). The purified enzyme yielded a single 170 kDa band after silver staining of SDS-polyacrylamide gels, in accordance with the description of Pommier et al., Cancer Res. 46: 3075-81 (1986).
(§3) Preparation of end-labeled DNA fragments: DNA fragments were 5' end-labeled as described, for example, by Fesen and Pommier (1989), supra. Briefly, native DNA was first linearized with a restriction enzyme, […] then the 5'-DNA termini were dephosphorylated with calf alkaline phosphatase and labeled with [gamma-^32 P]ATP using T4 polynucleotide kinase. For double-strand breaks assays using HL-60 nuclear extract, SV40 DNA was digested with BclI endonuclease and labeled at both DNA termini. For sequencing experiments, SV40 and c-myc DNAs were first 5'-end labeled at the XhoII and XbaI restriction sites, respectively. Then, in order to generate uniquely 5'-end-labeled fragments, labeled DNA was subjected to a second enzyme digestion, PflMI for SV40, and EcoRI plus HindIII for c-myc DNA. The resulting DNA fragments were separated by agarose gel electrophoresis and isolated by electroelution. Purification by phenol-chloroform extraction and ethanol precipitation were included between each step and at the end of the labeling procedures, pursuant to Pommier et al., J. Molec. Biol. 222: 909-24 (1991).
Topoisomerase II-induced DNA cleavage reactions: DNA fragments were equilibrated with or without drug in 10 mM Tris-HCl, pH 7.5, 50 mM KCl, 5 mM MgCl2 0.1 mM EDTA, 1 mM ATP and 15 μg/ml bovine serum albumin for 5 minutes before addition of purified topoisomerase II (40 to 70 ng) or HL-60 nuclear extract in 20 μl final reaction volume. Reactions were stopped by adding sodium dodecyl sulfate (SDS) to a final concentration of 1% and proteinase K to 400 μg/ml, followed by incubation for 1 hour at 40° C. […]

SV40 DNA = test: DNA unwinding (intercalation) assay with excess topoisomerase I; format: biochemical, simian virus 40; details: relaxed SV40 DNA, excess topoisomerase I; concentrations as high as 1 mM
Procedure: To assess DNA unwinding, see Pommier et al., Nucleic Acids Res. 15: 6713-31(1987), the DNA was relaxed first by treatment for 15 minutes with top 1 (20 units), after which the test agent was added. These steps were carried out at 37° C. DNA-agent-top 1 mixtures were incubated for an additional 30 minutes and then stopped as described above. Samples were then subjected to agarose gel electrophoresis as described above.
This was also the case for the 2 azatoxin isomers, 8 and 10, and for the demethylepipodophyllotoxins, DMDP and DMEP. Similar results were obtained with supercoiled DNA.

[1] = biological target: T1, purified murine leukemia top 2 (Mus musculus, UniProt Q01320); test: Sequencing of topoisomerase II cleavage sites (SV40 and c-myc DNA); format: biochemical
T1 construct: single 170 kDa band on silver-stained SDS-PAGE
T1 sequence (Q01320 whole entry): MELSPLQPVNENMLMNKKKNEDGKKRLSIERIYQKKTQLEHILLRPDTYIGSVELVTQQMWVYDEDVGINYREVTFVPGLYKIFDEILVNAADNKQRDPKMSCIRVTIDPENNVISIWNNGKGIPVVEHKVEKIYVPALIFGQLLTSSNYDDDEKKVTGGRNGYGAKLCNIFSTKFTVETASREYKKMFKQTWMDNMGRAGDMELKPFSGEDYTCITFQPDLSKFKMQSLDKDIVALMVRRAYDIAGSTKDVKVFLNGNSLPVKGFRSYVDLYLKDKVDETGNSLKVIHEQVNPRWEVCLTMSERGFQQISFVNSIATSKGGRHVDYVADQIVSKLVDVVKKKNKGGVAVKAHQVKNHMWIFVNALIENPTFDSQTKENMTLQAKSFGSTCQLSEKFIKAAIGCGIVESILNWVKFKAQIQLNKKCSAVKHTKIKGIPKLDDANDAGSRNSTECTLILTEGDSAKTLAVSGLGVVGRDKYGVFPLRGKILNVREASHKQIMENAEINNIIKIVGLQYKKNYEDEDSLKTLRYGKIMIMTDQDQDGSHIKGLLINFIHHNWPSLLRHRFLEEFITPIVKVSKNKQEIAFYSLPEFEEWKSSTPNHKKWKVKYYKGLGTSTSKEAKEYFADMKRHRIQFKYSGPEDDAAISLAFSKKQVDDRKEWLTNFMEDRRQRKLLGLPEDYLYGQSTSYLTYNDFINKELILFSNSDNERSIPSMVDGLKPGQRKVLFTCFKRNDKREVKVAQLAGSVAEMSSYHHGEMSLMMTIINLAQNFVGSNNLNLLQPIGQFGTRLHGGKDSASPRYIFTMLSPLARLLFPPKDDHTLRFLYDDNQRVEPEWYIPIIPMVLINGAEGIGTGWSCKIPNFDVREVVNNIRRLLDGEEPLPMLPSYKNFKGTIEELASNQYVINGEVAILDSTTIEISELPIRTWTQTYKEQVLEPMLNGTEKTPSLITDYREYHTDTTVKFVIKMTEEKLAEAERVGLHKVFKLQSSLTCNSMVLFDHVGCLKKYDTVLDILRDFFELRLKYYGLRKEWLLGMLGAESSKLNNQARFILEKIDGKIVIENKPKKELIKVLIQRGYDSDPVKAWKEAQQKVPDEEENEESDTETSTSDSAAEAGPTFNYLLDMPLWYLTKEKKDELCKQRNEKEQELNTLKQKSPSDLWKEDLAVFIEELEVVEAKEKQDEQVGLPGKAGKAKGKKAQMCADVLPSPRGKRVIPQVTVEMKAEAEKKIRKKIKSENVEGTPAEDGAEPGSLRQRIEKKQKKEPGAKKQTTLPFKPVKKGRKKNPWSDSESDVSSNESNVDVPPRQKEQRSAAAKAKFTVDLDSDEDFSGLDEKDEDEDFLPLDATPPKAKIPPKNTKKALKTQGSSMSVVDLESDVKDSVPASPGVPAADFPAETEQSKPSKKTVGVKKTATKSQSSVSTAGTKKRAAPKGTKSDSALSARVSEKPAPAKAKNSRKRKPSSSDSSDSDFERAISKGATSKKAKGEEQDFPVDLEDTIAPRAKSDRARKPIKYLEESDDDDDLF
Procedure: as §1, §2, §3
Topoisomerase II-induced DNA cleavage reactions: DNA fragments were equilibrated with or without drug in 10 mM Tris-HCl, pH 7.5, 50 mM KCl, 5 mM MgCl2 0.1 mM EDTA, 1 mM ATP and 15 μg/ml bovine serum albumin for 5 minutes before addition of purified topoisomerase II (40 to 70 ng) or HL-60 nuclear extract in 20 μl final reaction volume. Reactions were stopped by adding sodium dodecyl sulfate (SDS) to a final concentration of 1% and proteinase K to 400 μg/ml, followed by incubation for 1 hour at 40° C.
For DNA sequence analysis, samples were precipitated with ethanol and resuspended in 2.5 μl loading buffer (80% formamide, 10 mM NaOH, 1 mM EDTA, 0.1% xylene cyanol and 0.1% bromophenol blue). Samples were heated to 90° C. and immediately loaded into DNA sequencing gels (6% polyacrylamide; 19:1, acrylamide:bis) containing 7M urea in (1×) TBE buffer. Electrophoresis was at 2500 V (60 W) for 4 hours. Gels were dried on 3M paper sheets and autoradiographed with Kodak XAR-2 film. See Pommier et al. (1991), supra.
Induction of top 2 cleavage by azatoxin was tested directly with the use of purified murine leukemia top 2. […] Sites of cleavage were also determined by DNA sequencing in the 5' flank of c-myc first intron.

[2] = system: top 2 (HL-60 nuclear extract); test: Induction of DNA double-strand breaks in SV40 DNA in presence of HL-60 nuclear extract; format: biochemical; details: up to 1 mM
Procedure: as §1
as §3, with “Purification by phenol-chloroform extraction and ethanol precipitation were included between each step and at the end of the labeling procedures, pursuant to Pommier et al., J. Molec. Biol. 222: 909-24 (1991).” left out
For agarose gel analysis, 3 μl (10×) loading buffer (0.3% bromophenol blue, 16% Ficoll, 10 mM Na2 HPO4) was added to each sample which was then heated at 65° C. for 1-2 minutes before loading into an agarose gel made in (1×) TBE (89 mM Tris, 89 mM boric acid, 2 mM EDTA, pH8), in accordance with Fesen & Pommier (1989), supra. […] The quantification of drug-induced DNA double-strand breaks in the presence of HL-60 nuclear extract was effected as described in the next paragraph.
Radioactive gels were counted in betascope 603 blot analyzer. […] Drug-induced cleavage was expressed as: [formula] where C. and T. are the counts for cleaved and total DNA, respectively, in presence of nuclear extract without drug.
Drug-induced DNA double-strand breaks were measured first in SV40 DNA in the presence of HL-60 nuclear extracts. […]

`COc1cc([C@@H]2C3=C(C[C@H]4COC(=O)N42)c2cccc4cccc3c24)cc(OC)c1O` (relative stereo) [Compound 7, 5,11a-trans-3-one-5,4, 11, 11a-tetrahydro-5-(3,5-dimethoxy-4-hydroxyphenyl)-1H, 10H-oxazol [3', 4':1,6]pyrido[1,2-b]acenapthylene] was tested, and the “top 2 inhibition / top 2 activity (in words)” value (Topoisomerase II) was “inactive” and the “Topoisomerase II inhibition” value (Topoisomerase II) was “.largecircle”.
In the case of `COc1cc([C@@H]2c3c([nH]c4ccccc34)C[C@H]3COC(=O)N32)cc(OC)c1O` (relative stereo) [Compound 8], the “top 2 inhibition / top 2 activity (in words)” value (Topoisomerase II) is reported as “inactivity”, the “Topoisomerase II inhibition” value (Topoisomerase II) is reported as “.largecircle” and the DNA unwinding (SV40 DNA) is reported as “did not induce detectable DNA unwinding even at drug concentrations as high as 1 mM”.
For `COc1cc([C@@H]2c3[nH]c4ccccc4c3C[C@H]3COC(=O)N32)ccc1O` [Compound 2, 5R, 11aS-3-One-5,4,11,11a-tetrahydro-5-(3-methoxy-4-hydroxyphenyl)-1H, 6H-oxazolo[3', 4': 1.6]pyrido[3,4-b]indole], the “Topoisomerase II inhibition” value (Topoisomerase II) was “.smallcircle” and the “factor of reduction of top 2 activity by monodemethoxylation of pendant ring” value (Topoisomerase II; versus azatoxin) was 10.
With `O=C1OC[C@@H]2Cc3c([nH]c4ccccc34)[C@@H](c3ccc(O)cc3)N12` [Compound 3, 5R, 11aS-3-one-5,4,11,11a-tetrahydro-5-(4-hydroxyphenyl)-1H, 6H-oxazolo[3',4':1,6]pyrido[3,4-b]indole] the “top 2 inhibition / top 2 activity (in words)” value (Topoisomerase II) was “abolished the top 2 activity” and the “Topoisomerase II inhibition” value (Topoisomerase II) was “.largecircle”.
With `COc1cc([C@@H]2c3[nH]c4ccccc4c3C[C@H]3COC(=O)N32)cc(OC)c1OC` [Compound 4, 5R,11aS-3-one-5,4,11,11a,tetrahydro-5-(3,4,5-trimethoxyphenyl)-1H, 6H-oxazolo[3',4':1,6]pyrido[3,4-b]indole] the “Topoisomerase II inhibition” value (Topoisomerase II) was “.largecircle”.
In the case of `CS(=O)(=O)Nc1ccc([C@@H]2c3[nH]c4ccccc4c3C[C@H]3COC(=O)N32)cc1` [Compound 5], the “Topoisomerase II inhibition” value (Topoisomerase II) is reported as “.largecircle”.
In the case of `COc1cc([C@@H]2c3[nH]c4ccccc4c3[C@@H](O)[C@H]3COC(=O)N23)cc(OC)c1O` [Compound 6, 5R,11R,11aS-3-One-11-hydroxy-5,4,11,11a-tetrahydro-5-(3,5-dimethoxy-4-hydroxyphenyl)-1H, 6H-oxazolo[3'4:1,6]pyrido[3,4-b]indole], the “effect of hydroxyl substitution on top 2 activity” value (Topoisomerase II) is reported as “significantly decreases top 2 activity” and the “top 2 inhibition / top 2 activity (in words)” value (Topoisomerase II) is reported as “measurable but not strong top 2 activity”.
With `COc1cc([C@@H]2c3[nH]c4ccccc4c3C[C@@H]3COC(=O)N32)cc(OC)c1O` [Compound 9, 5R,11aR-3-One-5,4,11,11a-tetrahydro-5-(3,5-dimethoxy-4-hydroxyphenyl)-1H, 6H-oxazolo[3'4':1,6']pyrido[3,4-b]indole] the “top 2 inhibition / top 2 activity (in words)” value (Topoisomerase II) was “inactive” and the “Topoisomerase II inhibition” value (Topoisomerase II) was “.largecircle”.
In the case of `COc1cc([C@H]2c3[nH]c4ccccc4c3C[C@H]3COC(=O)N32)cc(OC)c1O` [Compound 10, 5S, 11aS-3-One-5,4,11,11a-tetrahydro-5-(3,5-dimethoxy-4-hydroxyphenyl)-1H, GH-oxazolo[3'4':1,6]pyrido[3,4-b]indole], the “top 2 inhibition / top 2 activity (in words)” value (Topoisomerase II) is reported as “inactive”, the “Topoisomerase II inhibition” value (Topoisomerase II) is reported as “.largecircle” and the DNA unwinding (SV40 DNA) is reported as “did not induce detectable DNA unwinding even at drug concentrations as high as 1 mM”.
`COc1cc([C@@H]2c3cc4c(cc3C[C@H]3COC(=O)[C@@H]32)OCO4)cc(OC)c1O` [DMDP, 4'-demethyl-4-desoxypodophyllotoxin, reference compound] was tested, and the “top 2 cleavage sites induced (number/amount)” value ([1]; SV40 and c-myc DNA, purified murine top 2) was “induced less cleavage that azatoxin”, the “top 2 cleavage pattern” value ([1]; compared with other top 2 inhibitors) was “at distinct cleavages sites” and the DNA unwinding (SV40 DNA) was “did not induce detectable DNA unwinding even at drug concentrations as high as 1 mM”.
With `COc1cc([C@@H]2c3cc4c(cc3[C@@H](O)[C@H]3COC(=O)[C@H]23)OCO4)cc(OC)c1O` [DMEP, 4'-demethylepipodophyllotoxin, reference compound] the “effect of hydroxyl substitution on top 2 activity” value (Topoisomerase II) was “increases activity”, the “top 2 cleavage potency (in words)” value [1] was “at least as potent as VP-16” and the DNA unwinding (SV40 DNA) was “did not induce detectable DNA unwinding even at drug concentrations as high as 1 mM”.
`COc1cc([C@@H]2c3cc4c(cc3[C@@H](O[C@@H]3O[C@@H]5CO[C@@H](C)O[C@H]5[C@H](O)[C@H]3O)[C@H]3COC(=O)[C@H]23)OCO4)cc(OC)c1O` [VP-16, etoposide, reference compound] was tested, and the “suppression of DNA cleavage at high drug concentrations” value [2] was “not suppressed at high drug concentrations (up to 1 mM)”.
